This is an account of results in paper PMC11822723 (ACS Omega, 2025).

In brackets after ≈: the same amount, converted by molar mass. Read-outs that look alike come from different tables or passages of the source.

Series [1] is described as follows: Aqueous solubility measurements (stepwise solvent addition, stereo microscope). It is filed as physicochemical. The settings on record: for solubility: thermodynamic from solid, read-out: solubility, conc. The text has this: Thus, the impact of the pH value on the solubilities of the Ox-Ibu-PIP-X-Mal complexes was investigated. Commercially available 0.9% NaCl has a pH of roughly 5, but when acidified to pH 3, the solubilities of both Ox-Ibu-PIP-X-Mal complexes increased by a factor of 1.5. […] Expectedly, using phosphate buffer or phosphate-buffered saline (PBS) at pH 7.4 further decreased the solubility.
5% glucose and 0.9% NaCl solutions were purchased from B. Braun. 0.9% NaCl solutions were acidified to pH 3.0 using 1 M HCl and basified to pH 7.0 using 1 M NaOH. Aqueous buffers (citrate, PB, PBS) were prepared in 100 mM concentrations. One mg of compound was weighted using a Sartorius ME215P analytical balance and the solubility was investigated according to the following stepwise interval: +1 μL in the volume range 0–10 μL; +10 μL in the volume range 10–100 μL; +100 μL in the volume range 100–1000 μL; +1000 μL in the volume range 1000–5000 μL. Dissolution of the sample was investigated using a Leica M80 routine stereo microscope (50× magnification) until no solid particles were observed.

Series [2] is described as follows: Hydrolytic stability of the maleimide in phosphate buffer, UHPLC. The format is physicochemical. Particulars: 1 mM, 150 mM phosphate buffer pH 7.4, 20 °C. The procedure: It is known from literature that most maleimides are prone to hydrolysis at physiological pH.[38] Consequently, the hydrolytic stabilities of the three oxaliplatin(IV)-acetato complexes bearing the piperazine maleimides were studied in comparison to the reference complex Ox-OAc-PEG4-Mal. The hydrolysis of the platinum(IV)-acetato complexes was investigated in phosphate buffer at pH 7.4 and 20 °C over 5 h and the amount of remaining intact parental complex was monitored with ultrahigh-performance liquid chromatography (UHPLC) (Figure 1). Ox-OAc-PIP-C2-Mal hydrolyzed rapidly, with only traces of intact platinum(IV)-maleimide remaining after 1 h incubation time. […] These dramatic differences are in line with some model maleimide compounds reported in literature, also containing piperazine moieties.[38] The strong inductive effects of the protonated quaternary nitrogen of the piperazine can explain the extremely fast hydrolysis of Ox-OAc-PIP-C2-Mal.
Phosphate buffer (150 mM, pH 7.4) containing 1 mM platinum compound was incubated at 20 °C. The reaction was monitored on a Thermo Scientific Dionex UltiMate 3000 UHPLC-system using a Waters Acquity UPLC BEH C18 1.7 μm 3.0 mm × 50 mm column. Milli-Q water, containing 0.1% formic acid, and acetonitrile containing 0.1% formic acid were used as eluents. A gradient of 5–95% over 5 min was used. […]

The target in series [3] is T1, albumin (Bos taurus, UniProt P02769).
T1 construct: Serum proteins (including albumin) have a retention time of 2–4 min, with the albumin fraction eluting at 4.0 min; tissue Sigma-Aldrich; host or cells: fetal calf serum (whole serum, buffered with 150 mM phosphate pH 7.4)
The series can be described thus: Albumin binding in phosphate-buffered fetal calf serum, 195Pt traces by SEC-ICP-MS. The format is in vitro ADME. Particulars: for bound to albumin after 1 h of incubation / bound to albumin at time point 0: 100 μM in FCS (150 mM phosphate buffer, pH 7.4), 37 °C. How it is done: Subsequently, it was of interest how the observed divergent maleimide hydrolysis rates impact the albumin binding kinetics. Therefore, the different platinum(IV) complexes were incubated in phosphate-buffered fetal calf serum (FCS) at 37 °C over 25 h and ^195Pt traces were measured via size-exclusion chromatographyinductively coupled plasma mass spectrometry (SEC-ICP-MS). Serum proteins (including albumin) have a retention time of 2–4 min, with the albumin fraction eluting at 4.0 min (Figure S1) as part of the high-molecular weight fraction (HMWF) and unbound platinum(IV) complexes elute in the low-molecular weight fraction (LMWF) with retention times usually >5 min. Already at time point 0, ∼60% of Ox-OAc-PEG4-Mal (tR = 6.4 min) was bound to albumin at 4.0 min in the HMWF, which increased to ∼90% after 1 h of incubation (Figure 2A). The remaining 10% of the parental complex (at tR > 5 min) most likely either contained a hydrolyzed maleimide moiety, unable to bind albumin, or were conjugated to low-molecular weight sulfur-containing compounds. The formed platinum(IV)-albumin conjugate remained stable for more than 25 h. […] In the LMWF, only a small peak of still intact Ox-OAc-PIP-C2-Mal (tR 6.5 min) could be observed, while a major signal (∼35%) of most likely already hydrolyzed maleimide compound appeared at tR 5.8 min. This is in very good agreement with the very fast hydrolysis of the maleimide moiety shown above (see Figure 1).
FCS was purchased from Sigma-Aldrich and buffered with 150 mM phosphate pH 7.4 in order to guarantee a stable pH. The platinum(IV) complexes (5 mM) were dissolved in 150 mM phosphate buffer (pH 7.4) and diluted […] in the buffered serum to obtain a final concentration of 100 μM. The samples were incubated in the autosampler at 37 °C and analyzed at 0, 1, 4, 24, and 25 h time points. Between each sample a pure water blank was measured. For SEC-ICP-MS measurements an Agilent 1260 Infinity system coupled to an Agilent 7800 ICP-MS equipped with a dynamic reaction cell was used. Oxygen (purity 5.5, Messer Austria GmbH, Gumpoldskirchen, Austria) was used as reaction gas.
(Size exclusion chromatography separates by hydrodynamic size, large species first.)

Where [4] appears, read: 0.9% NaCl solution, pH 5, saline or isotonic, 0.9% NaCl.
Where [5] appears, read: 5% glucose solution, saline or isotonic, 5% glucose.

The solubility is the dissolved amount per volume that the medium holds.

T1 sequence (P02769 25-607): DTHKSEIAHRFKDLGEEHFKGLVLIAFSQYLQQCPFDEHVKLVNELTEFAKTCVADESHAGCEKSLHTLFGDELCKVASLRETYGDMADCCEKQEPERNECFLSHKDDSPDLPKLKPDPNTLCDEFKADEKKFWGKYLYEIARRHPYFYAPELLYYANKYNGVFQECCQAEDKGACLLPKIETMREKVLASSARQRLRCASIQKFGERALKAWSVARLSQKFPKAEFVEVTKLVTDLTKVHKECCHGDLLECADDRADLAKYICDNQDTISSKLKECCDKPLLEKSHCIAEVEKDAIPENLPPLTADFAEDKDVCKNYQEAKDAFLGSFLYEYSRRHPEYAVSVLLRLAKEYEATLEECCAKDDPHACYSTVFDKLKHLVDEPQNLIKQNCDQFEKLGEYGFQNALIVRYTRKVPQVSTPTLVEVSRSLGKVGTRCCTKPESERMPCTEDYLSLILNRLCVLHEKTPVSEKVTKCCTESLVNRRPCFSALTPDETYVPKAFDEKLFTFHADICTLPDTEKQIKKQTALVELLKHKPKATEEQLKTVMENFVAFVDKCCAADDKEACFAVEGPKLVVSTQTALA

As for `CC(C)[C@H](NC(=O)CCC(=O)NCCN1CCN(CCOCCN2C(=O)C=CC2=O)CC1)C(=O)N[C@@H](CCCNC(N)=O)C(=O)Nc1ccc(CO)cc1` [Mal-O-PIP-Succ-ValCitPAB-OH, N1-(2-(4-(2-(2-(2,5-Dioxo-2,5-dihydro-1H-pyrrol-1-yl)ethoxy)ethyl)piperazin-1-yl)ethyl)-N4-((S)-1-(((S)-1-((4-(hydroxymethyl)phenyl)amino)-1-oxo-5-ureidopentan-2-yl)amino)-3-methyl-1-oxobutan-2-yl)succinamide], the solubility came out at 1300 mM (≈ 985 mg/mL) in series [1] (setting [4]) and 600 mM (≈ 455 mg/mL) in series [1] (setting [5]).
For `CC(C)[C@H](NC(=S)NCCN1CCN(CCOCCN2C(=O)C=CC2=O)CC1)C(=O)N[C@@H](CCCNC(N)=O)C(=O)Nc1ccc(CO)cc1` [Mal-O-PIP-ThioU-ValCitPAB-OH, (S)-2-((S)-2-(3-(2-(4-(2-(2-(2,5-Dioxo-2,5-dihydro-1H-pyrrol-1-yl)ethoxy)ethyl)piperazin-1-yl)ethyl)thioureido)-3-methylbutanamido)-N-(4-(hydroxymethyl)phenyl)-5-ureidopentanamide] the same measures were 1400 mM (≈ 1010 mg/mL) and 600 mM (≈ 431 mg/mL).
For `CC(C)[C@H](NC(=O)CCN1CCN(CCOCCN2C(=O)C=CC2=O)CC1)C(=O)N[C@@H](CCCNC(N)=O)C(=O)Nc1ccc(CO)cc1` [Mal-O-PIP-ValCitPAB-OH, (S)-2-((S)-2-(3-(4-(2-(2-(2,5-Dioxo-2,5-dihydro-1H-pyrrol-1-yl)ethoxy)ethyl)piperazin-1-yl)propanamido)-3-methylbutanamido)-N-(4-(hydroxymethyl)phenyl)-5-ureidopentanamide] the same measures were 1500 mM (≈ 1030 mg/mL) and 700 mM (≈ 481 mg/mL).
For `CC(C)C(NC(=O)CCOCCOCCOCCOCCN1C(=O)C=CC1=O)C(=O)NC(CCCNC(N)=O)C(=O)Nc1ccc(CO)cc1` (stereo not shown) [Mal-PEG4-ValCitPAB-OH, reference compound], the “solubility, conc.” value in series [1] (0.9% NaCl) worked out at 35 mM (≈ 24.7 mg/mL); in series [1] (5% glucose), 24 mM (≈ 17 mg/mL). Further, the solubility stood at 40 mM (≈ 28.3 mg/mL) in series [1] (setting [4]) and 20 mM (≈ 14.1 mg/mL) in series [1] (setting [5]).
For `CC(=O)[O][Pt]12([O]C(=O)NCCOCCOCCOCCOCCN3C(=O)C=CC3=O)([NH][C@@H]3CCCC[C@H]3[NH]1)[O]C(=O)C(=O)[O]2` [Ox-OAc-PEG4-Mal, (OC-6–34)-Acetato-[(1R,2R)-1,2-cyclohexanediamino][(14-(2,5-dioxo-2,5-dihydro-1H-pyrrol-1-yl)-3,6,9,12-tetraoxatetradecyl)carbamato]oxalatoplatinum(IV)], the “intact maleimide / intact complex remaining after 5 h incubation” value in series [2] is on record as about 70%. In series [3], the “bound to albumin after 1 h of incubation” value is about 90% and the “bound to albumin at time point 0” value is recorded as about 60%. The “time the formed platinum(IV)-albumin conjugate remained stable” value in series [3] (FCS, pH 7.4, 37 °C) is reported as “over 25 h”. Besides, the “remaining parental complex not bound to albumin (tR > 5 min)” value in series [3] (FCS, pH 7.4, 37 °C, after 1 h) came out at 10%.
Turning to `CC(=O)[O][Pt]12([O]C(=O)NCCN3CCN(CCN4C(=O)C=CC4=O)CC3)([NH][C@@H]3CCCC[C@H]3[NH]1)[O]C(=O)C(=O)[O]2` [Ox-OAc-PIP-C2-Mal, (OC-6–34)-Acetato-[(1R,2R)-1,2-cyclohexanediamino][(2-(4-(2-(2,5-dioxo-2,5-dihydro-1H-pyrrol-1-yl)ethyl)piperazin-1-yl)ethyl)carbamato]oxalatoplatinum(IV)], in series [3], the “bound to albumin at time point 0” value is reported as about 60%. Also, the “signal of most likely already hydrolyzed maleimide compound in LMWF (tR 5.8 min)” value in series [3] (FCS, pH 7.4, 37 °C) was about 35%. Also, the “course of albumin binding over time” value in series [3] (FCS, pH 7.4, 37 °C, over 25 h) is “did not further increase over time”.
For the compound `CC(=O)[O][Pt]12([O]C(=O)NCCN3CCN(CCCCCN4C(=O)C=CC4=O)CC3)([NH][C@@H]3CCCC[C@H]3[NH]1)[O]C(=O)C(=O)[O]2` [Ox-OAc-PIP-C5-Mal, (OC-6–34)-Acetato-[(1R,2R)-1,2-cyclohexanediamino][(2-(4-(5-(2,5-dioxo-2,5-dihydro-1H-pyrrol-1-yl)pentyl)piperazin-1-yl)ethyl)carbamato]oxalatoplatinum(IV)], in series [3], the “bound to albumin after 1 h of incubation” value was about 95% and the “bound to albumin at time point 0” value is recorded as 69%.
Take `CC(=O)[O][Pt]12([O]C(=O)NCCN3CCN(CCOCCN4C(=O)C=CC4=O)CC3)([NH][C@@H]3CCCC[C@H]3[NH]1)[O]C(=O)C(=O)[O]2` [Ox-OAc-PIP-O-Mal, (OC-6–34)-Acetato-[(1R,2R)-1,2-cyclohexanediamino][(2-(4-(2-(2-(2,5-dioxo-2,5-dihydro-1H-pyrrol-1-yl)ethoxy)ethyl)piperazin-1-yl)ethyl)carbamato]oxalatoplatinum(IV)]: in series [3], the “bound to albumin after 1 h of incubation” value is about 95% and the “bound to albumin at time point 0” value worked out at 75%.
